From PubChem BioAssay AID488890 (Southern Research Specialized Biocontainment Screening …, 2010)
pIC50: −log10 of the molar value. Results filed as inconclusive are left out. The source made the active and inactive calls. The rule behind the calls is not given here.

What follows are compounds tested on Mycobacterium tuberculosis non-replicating, growth inhibition (assay: growth inhibition of non-replicating M. tuberculosis (AID 488890)).

Structure (SMILES)	IC50	pIC50
Cc1cccc2nc(CSc3nc4cc([N+](=O)[O-])ccc4s3)cn12	18.1 µM (inactive)	
O=C(Nc1ccccc1F)c1ccc(Br)o1	13.4 µM (inactive)	
O=[N+]([O-])c1ccc(-n2nnnc2-c2ccccc2)c([N+](=O)[O-])c1		5.20
CSC1=NSC2=NC(=O)/C(=C\c3cccs3)C(=N)N12		5.35
Cc1ccc(C(=O)N/N=C\c2ccc[nH]2)cn1	16.9 µM (inactive)	
COC(=O)c1cn(NC(=O)c2cnccn2)c(=O)c2ccccc12		5.06
Cc1ccccc1-n1c(C)cc(/C=N/NC(=O)c2ccncc2)c1C		6.19
CCCCCC/C(=N/O)c1ccccn1	11.6 µM (inactive)	
Cc1ccc(C(=O)Nc2nccs2)cc1	19.8 µM (inactive)	
COc1ccc(NC(=O)C(=O)NNC(=O)C(C)Oc2ccc(Cl)cc2Cl)cc1 (configuration not stated)		5.82
C/C(=N\Nc1ccc(Cl)cc1)c1ccccn1	15.9 µM (inactive)	
COc1cc(OC)cc(C(=O)NNC(=O)c2ccccn2)c1	11.6 µM (inactive)	
CCOc1ccc(N2CC(=O)Nc3ccccc3NCC2=O)cc1		5.40
CC(=O)n1cc(/C=C2/N=C(c3ccccc3)OC2=O)c2ccccc21		5.59
COc1cccc(C(=O)N/N=C(/c2ccccc2)c2ccccn2)c1		5.39
O=C(COC(=O)CCC(=O)c1ccc(F)cc1)Nc1ccc(F)cc1F	24.6 µM (inactive)	
Cc1cc(C)n(-c2nc(NCCCO)c3c4c(sc3n2)CCCC4)n1	10.5 µM (inactive)	
COc1ccccc1OCC(=O)N/N=C/C=C/c1ccc([N+](=O)[O-])o1		5.56
COCCOC(=O)c1c(C)oc2ccc(OC(=O)c3ccco3)cc12		5.04

Structure (SMILES)	IC50	pIC50
O=C1NC(=O)N(Cc2ccc(F)cc2)C(=O)/C1=C\c1ccc([N+](=O)[O-])s1	11.2 µM (inactive)	
O=c1c2cc(Cl)ccc2oc2nc3n(c(=O)c12)CCCS3		5.52
CCCn1c(O)c(N=NC(=O)c2ccco2)c2ccccc21	14.2 µM (inactive)	
Cc1cccc(NC(=O)c2ccc([N+](=O)[O-])o2)c1C		5.19
Cc1ccc(CC(=O)Nc2ccc(Cl)cn2)cc1		5.97
COc1ccc(C(=O)NNC2=C(C(=O)C(F)(F)F)CCC2)cc1		5.72
Cc1ccc(NC(=O)COc2ccccc2)cc1Cl		5.00
O=C(N/N=C/c1cccc(F)c1)c1c(O)c2ccccc2[nH]c1=O		5.50
NC(=O)c1ccc(-c2ccc(Br)cc2)o1		5.71
COc1ccc(C(=O)COC(=O)c2ccccc2O)c(OC)c1		5.84
COc1ccc2c(c1)sc(=N)n2C	19.3 µM (inactive)	
O=C(Nc1cccc([N+](=O)[O-])c1)C1COc2ccccc2O1 (configuration not stated)	21 µM (inactive)	
CCc1ccc(N2NC(=O)/C(=C/C=C/c3ccco3)C2=O)cc1		5.44
COCCSc1nnc(NC(=O)CCS(=O)(=O)Cc2ccccc2)s1		5.29
O=C(N/N=C/c1ccc[nH]1)c1ccc2c(c1)OCO2		5.05
COc1cc(/C=C2/C(=O)NN(c3cccc(F)c3)C2=O)ccc1OC(=O)c1ccco1		5.30
O=[N+]([O-])c1ncccc1Oc1nc(-c2cccnc2)nc2ccccc12		6.14
COc1cccc(F)c1C(C[N+](=O)[O-])c1c(N)n(C)c(=O)n(C)c1=O (configuration not stated)		5.12
Cc1cc(C)cc(OCC(=O)N/N=C/c2ccc([N+](=O)[O-])o2)c1		5.87

Structure (SMILES)	IC50	pIC50
CCN(CC)S(=O)(=O)c1ccc(C(=O)OCn2nnc3ccccc3c2=O)cc1	15.4 µM (inactive)	
COc1ccc(OC(=O)c2cc3cc(Cl)ccc3oc2=O)cc1	10.1 µM (inactive)	
O=c1c2cc(Br)ccc2nc(-c2ccc([N+](=O)[O-])cc2)n1O		6.00
C/C(=N/NC(=O)c1cc2ccccc2cc1O)C1C(=O)c2ccccc2C1=O		5.91
O=C(Nc1cccnc1)c1cc(Cl)ccc1Cl	18.8 µM (inactive)	
CC(=O)c1ccc(NC(=O)C(Cc2ccccc2)n2cccc2)cc1 (configuration not stated)	12.5 µM (inactive)	
CCOc1ccc(-c2nc3ccccc3c(=O)o2)cc1		5.20
CN(C(=O)COC(=O)c1ccc([N+](=O)[O-])cc1Cl)C1CCCCC1		5.23
CCc1ccc(OCC(=O)c2c(O)c3ccccc3oc2=O)cc1		5.03
Cc1ccc(C)c(-c2nnc(NC(=O)c3ccco3)o2)c1		6.18
COc1ccc(COc2cccc(C=O)c2)cc1	25.8 µM (inactive)	
O=C1C=CC(=O)N1N(c1ccccc1)c1ccccc1		5.06
O=C(c1ccc(Cl)cc1)c1nnc(-c2ccncc2)o1		5.48
Cc1csc(NC(=O)c2cc([N+](=O)[O-])cc([N+](=O)[O-])c2)n1		5.11
CCOC(=O)c1ccc(NC2OC(=O)c3ccccc32)cc1 (configuration not stated)		5.40
CCOC(=O)c1c(C)n(C)c2ccc(OC(C)C(=O)OC)cc12 (configuration not stated)	14.2 µM (inactive)	
CCC1(O)CC(c2ccccc2)=NN1C(=O)c1ccccc1F (configuration not stated)		5.46
CN1CCN(c2ccc(NC(=O)c3ccc(-c4ccc(Cl)cc4)o3)cc2)CC1		5.29
O=C(COC(=O)COc1ccc(Nc2ccccc2)cc1)NCc1ccco1	10.3 µM (inactive)	
